Experimental data reported in ChEMBL document CHEMBL5532684, “Total Synthesis and Antibacterial Activity of Marine Tris-indole Alkaloid Tulongicin A” (2024).
In brackets after ≈: the same amount, converted by molar mass.

Assays:
Assay type in all cases: functional
Staphylococcus aureus [1] = assay: Antibacterial activity against methicillin resistant Staphylococcus aureus clinical isolate 1 assessed as inhibition of bacterial growth incubated overnight by CLSI protocol based assay; details: read-out: MIC100
Staphylococcus aureus [2] = assay: Bactericidal activity against methicillin resistant Staphylococcus aureus clinical isolate 3 incubated overnight by CLSI protocol based assay; details: read-out: MBC>99.9
Pseudomonas aeruginosa [3] = assay: Antibacterial activity against Pseudomonas aeruginosa ATCC 27853 assessed as inhibition of bacterial growth incubated overnight by CLSI protocol based assay; details: read-out: MIC100
Staphylococcus aureus [4] = assay: Bactericidal activity against methicillin susceptible Staphylococcus aureus clinical isolate 5 incubated overnight by CLSI protocol based assay; details: read-out: MBC>99.9
Staphylococcus aureus [5] = assay: Bactericidal activity against methicillin susceptible Staphylococcus aureus clinical isolate 1 incubated overnight by CLSI protocol based assay; details: read-out: MBC>99.9
Staphylococcus aureus [6] = assay: Antibacterial activity against methicillin susceptible Staphylococcus aureus clinical isolate 2 assessed as inhibition of bacterial growth incubated overnight by CLSI protocol based assay; details: read-out: MIC100
Staphylococcus aureus [7] = assay: Bactericidal activity against methicillin susceptible Staphylococcus aureus clinical isolate 4 incubated overnight by CLSI protocol based assay; details: read-out: MBC>99.9
Staphylococcus aureus [8] = assay: Antibacterial activity against methicillin susceptible Staphylococcus aureus clinical isolate 1 assessed as inhibition of bacterial growth incubated overnight by CLSI protocol based assay; details: read-out: MIC100
Staphylococcus aureus [9] = assay: Bactericidal activity against Staphylococcus aureus ATCC 29213 incubated overnight by CLSI protocol based assay; details: read-out: MBC>99.9
Staphylococcus aureus [10] = assay: Antibacterial activity against methicillin susceptible Staphylococcus aureus clinical isolate 5 assessed as inhibition of bacterial growth incubated overnight by CLSI protocol based assay; details: read-out: MIC100
Staphylococcus aureus [11] = assay: Bactericidal activity against methicillin susceptible Staphylococcus aureus clinical isolate 2 incubated overnight by CLSI protocol based assay; details: read-out: MBC>99.9
Pseudomonas aeruginosa [12] = assay: Bactericidal activity against Pseudomonas aeruginosa ATCC 27853 incubated overnight by CLSI protocol based assay; details: read-out: MBC>99.9
Staphylococcus aureus [13] = assay: Antibacterial activity against methicillin susceptible Staphylococcus aureus clinical isolate 3 assessed as inhibition of bacterial growth incubated overnight by CLSI protocol based assay; details: read-out: MIC100
Staphylococcus aureus [14] = assay: Antibacterial activity against methicillin susceptible Staphylococcus aureus clinical isolate 4 assessed as inhibition of bacterial growth incubated overnight by CLSI protocol based assay; details: read-out: MIC100
Staphylococcus aureus [15] = assay: Antibacterial activity against methicillin resistant Staphylococcus aureus clinical isolate 3 assessed as inhibition of bacterial growth incubated overnight by CLSI protocol based assay; details: read-out: MIC100
Staphylococcus aureus [16] = assay: Bactericidal activity against methicillin resistant Staphylococcus aureus clinical isolate 1 incubated overnight by CLSI protocol based assay; details: read-out: MBC>99.9
Escherichia coli [17] = assay: Antibacterial activity against Escherichia coli ATCC 25922 assessed as inhibition of bacterial growth incubated overnight by CLSI protocol based assay; details: read-out: MIC100
Staphylococcus aureus [18] = assay: Bactericidal activity against methicillin resistant Staphylococcus aureus clinical isolate 5 incubated overnight by CLSI protocol based assay; details: read-out: MBC>99.9
Staphylococcus aureus [19] = assay: Bactericidal activity against methicillin resistant Staphylococcus aureus clinical isolate 4 incubated overnight by CLSI protocol based assay; details: read-out: MBC>99.9
Staphylococcus aureus [20] = assay: Antibacterial activity against methicillin resistant Staphylococcus aureus clinical isolate 2 assessed as inhibition of bacterial growth incubated overnight by CLSI protocol based assay; details: read-out: MIC100
Escherichia coli [21] = assay: Bactericidal activity against Escherichia coli ATCC 25922 incubated overnight by CLSI protocol based assay; details: read-out: MBC>99.9
Staphylococcus aureus [22] = assay: Antibacterial activity against methicillin resistant Staphylococcus aureus clinical isolate 5 assessed as inhibition of bacterial growth incubated overnight by CLSI protocol based assay; details: read-out: MIC100
Staphylococcus aureus [23] = assay: Bactericidal activity against methicillin resistant Staphylococcus aureus clinical isolate 2 incubated overnight by CLSI protocol based assay; details: read-out: MBC>99.9
Staphylococcus aureus [24] = assay: Bactericidal activity against methicillin susceptible Staphylococcus aureus clinical isolate 3 incubated overnight by CLSI protocol based assay; details: read-out: MBC>99.9
Staphylococcus aureus [25] = assay: Antibacterial activity against Staphylococcus aureus assessed as inhibition of bacterial growth
Staphylococcus aureus [26] = assay: Antibacterial activity against Staphylococcus aureus ATCC 29213 assessed as inhibition of bacterial growth incubated overnight by CLSI protocol based assay; details: read-out: MIC100
Staphylococcus aureus [27] = assay: Antibacterial activity against methicillin resistant Staphylococcus aureus clinical isolate 4 assessed as inhibition of bacterial growth incubated overnight by CLSI protocol based assay; details: read-out: MIC100

Compound	MIC (Staphylococcus aureus [1])	MBC (Staphylococcus aureus [2])	MIC (Pseudomonas aeruginosa [3])	MBC (Staphylococcus aureus [4])	MBC (Staphylococcus aureus [5])	MIC (Staphylococcus aureus [6])	MBC (Staphylococcus aureus [7])	MIC (Staphylococcus aureus [8])	MBC (Staphylococcus aureus [9])	MIC (Staphylococcus aureus [10])	MBC (Staphylococcus aureus [11])	MBC (Pseudomonas aeruginosa [12])	MIC (Staphylococcus aureus [13])	MIC (Staphylococcus aureus [14])	MIC (Staphylococcus aureus [15])	MBC (Staphylococcus aureus [16])	MIC (Escherichia coli [17])	MBC (Staphylococcus aureus [18])	MIC (Staphylococcus aureus [20])	MBC (Escherichia coli [21])	other results
Brc1ccc2c(C(C3=NC[C@H](c4c[nH]c5cc(Br)ccc45)N3)c3c[nH]c4cc(Br)ccc34)c[nH]c2c1	2 µg/mL (≈ 3 µM)	2 µg/mL (≈ 3 µM)	> 128 µg/mL	64 µg/mL (≈ 96.1 µM)	16 µg/mL (≈ 24 µM)	2 µg/mL (≈ 3 µM)	128 µg/mL (≈ 192 µM)	1 µg/mL (≈ 1.5 µM)	4 µg/mL (≈ 6 µM)	2 µg/mL (≈ 3 µM)	2 µg/mL (≈ 3 µM)	> 128 µg/mL	2 µg/mL (≈ 3 µM)	2 µg/mL (≈ 3 µM)	2 µg/mL (≈ 3 µM)	128 µg/mL (≈ 192 µM)	16 µg/mL (≈ 24 µM)	2 µg/mL (≈ 3 µM)	1 µg/mL (≈ 1.5 µM)	32 µg/mL (≈ 48 µM)	MBC (Staphylococcus aureus [19]): 16 µg/mL (≈ 24 µM); MIC (Staphylococcus aureus [22]): 1 µg/mL (≈ 1.5 µM); MBC (Staphylococcus aureus [23]): 16 µg/mL (≈ 24 µM); MBC (Staphylococcus aureus [24]): 16 µg/mL (≈ 24 µM); MIC (Staphylococcus aureus [25]): 1 µg/mL (≈ 1.5 µM); MIC (Staphylococcus aureus [26]): 2 µg/mL (≈ 3 µM); MIC (Staphylococcus aureus [27]): 2 µg/mL (≈ 3 µM)
O=C(C1=NC[C@H](c2c[nH]c3cc(Br)ccc23)N1)c1c[nH]c2cc(Br)ccc12 (racemic)	2 µg/mL (≈ 4.11 µM)	4 µg/mL (≈ 8.23 µM)	> 128 µg/mL	128 µg/mL (≈ 263 µM)	32 µg/mL (≈ 65.8 µM)	2 µg/mL (≈ 4.11 µM)	> 128 µg/mL	2 µg/mL (≈ 4.11 µM)	8 µg/mL (≈ 16.5 µM)	2 µg/mL (≈ 4.11 µM)	> 128 µg/mL	> 128 µg/mL	2 µg/mL (≈ 4.11 µM)	2 µg/mL (≈ 4.11 µM)	2 µg/mL (≈ 4.11 µM)	> 128 µg/mL	> 128 µg/mL	64 µg/mL (≈ 132 µM)	2 µg/mL (≈ 4.11 µM)	> 128 µg/mL	MIC (Staphylococcus aureus [22]): 2 µg/mL (≈ 4.11 µM); MBC (Staphylococcus aureus [23]): 16 µg/mL (≈ 32.9 µM); MBC (Staphylococcus aureus [24]): > 128 µg/mL; MIC (Staphylococcus aureus [26]): 2 µg/mL (≈ 4.11 µM); MIC (Staphylococcus aureus [27]): 2 µg/mL (≈ 4.11 µM)
